The values below come from US7067486B2, “Acetylcholinesterase-derived peptides and uses thereof” (priority 1999, dated 2006).

One experiment has as its system CD34^+ cells. Nature of the experiment: BrdU incorporation into CD34+ cells (cell proliferation). Conditions: peptide 2 nM, cord blood CD34+ cells. The class given is cell-based, human. An excerpt:
Cell Source: UCB was collected, following informed consent of the parents and with the approval of the Sourasky Medical Center Ethics Committee, as previously described [Grisaru et al. (1999a) Am. J. Obstet. Gynecol, 180, 1240–1243]. Following 1:1 (v/v) dilution in Iscove's modified Dulbecco medium (IMDM, Beit Haemek, Israel), mononuclear cells were separated using 3% gelatin (Difco, Detroit, Mich.) and Ficoll-Hypaque gradients (<1.077 g/ml; Pharmacia, Uppsala, Sweden) [Pick et al. (1998) Br. J. Haematol. 103, 639–50]. CD34^+ cells were enriched using CD34 immunoglobulin-coated magnetic beads (CD34 progenitor cell selection system, Dynal, Norway).CD34^+ cells analysis was performed by flow cytometry (Becton Dickinson Immunocytochemistry System Inc., San Jose, Calif.), using CD34-PE (Becton Dickinson Immunocytometry System, Inc.) and CD45-FITC (Dako, Glostrup, Denmark) monoclonal antibodies. […] Liquid Cultures: UCB CD34^+ cells were set for liquid cultures at a concentration of 10^5/mL in IMDM, containing 10% autologous plasma, 2 mM L-glutamine (Sigma Chemical Co., St Louis, Mo.), penicillin ([…]), streptomycin ([…]), amphotericin B (2×10^−5 M) (Sigma Chemical Co.), and heparin (20 IU/mL, Gibco, Grand Island, N.Y.), all in a fully humidified atmosphere at 37° C. and 5% CO2. The following elements were added where noted: • 1. Hematopoietic growth factors: Interleukin 3 (IL3, 5 ng/mL, Immunex, Seattle, Wash.), interleukin 6 (IL6, 50 ng/mL, R&D Systems, Minneapolis, Minn.), TPO (1 ng/mL, R&D Systems), stem cell factor (SCF, 10 ng/mL, R&D Systems), FLT-3 ligand (FLT3, 50 ng/mL, R&D Systems), granulocyte-macrophage colony stimulating factor (GM-CSF, 50 ng/mL, Biogenesis Ltd, Bournemouth, UK) and combinations of the above, for 24 hr to 28 days (supplemented every 4 days). • 2. […] AChE C-terminal peptides: The following C-terminal peptides of the AChE synaptic (ASP, also denoted SEQ ID: No. 2) and readthrough (ARP, also denoted SEQ ID: No. 1) isoforms were synthesized using a 433A peptide synthesizer (PE Applied Biosystems, Inc., Norwalk, Conn.). • ASP: 1-[…]-40, also denoted as SEQ ID: No. 2. • ARP: 1-[…]-26, also denoted as SEQ ID: No. 1.
[…] Twenty-eight day liquid cultures were sampled every 6–8 days for viable cell counting (using trypan blue dye exclusion), cell phenotyping (CD34^+, CD33^+ and CD41^+ quantification using flow cytometry, with CD34-PE, CD33-FITC (Immunotech/Coulter, Hialeah, Fla.), CD41-FITC (Immunoquality Products, Groningen, Netherlands) and CD45-FITC monoclonal antibodies), and growth of progenitor colony (granulocyte-macrophage and megakaryocytic), using previously described techniques (Pick et al. (1998) id ibid.). […]
(Uptake of a labelled nucleoside into DNA is a usual measure of proliferation.)

Another experiment concerns developing mouse brain. Description: BrdU labeling in developing brain after injection of pregnant mouse. The class given is in vivo. Conditions: peptide 0.1 mg/Kg into pregnant mouse; BrdU 24 hr later. An excerpt:
After 1 hr the embryo was isolated and fixed.
Embryonic neuroepithelial cells have one of two fates: (1) to continue proliferation and migration up and down from the ventricular zone up to the cortical plate, or (2) to quit the proliferative cycle and initiate terminal differentiation. The balance between these two processes determines the number of proliferating neuronal progenitors as well as the thickness of the cortical plate where post-mitotic neurons accumulate (see scheme at FIG. 10).

Take “ASP (DTLDEAERQWKAEFHRWSSYMVHWKNQFDHYSKQDRCSDL)”: the BrdU incorporation values with CD34^+ cells (16 hrs post-plating) worked out at 0.095 ± 0.004; in the experiment on CD34^+ cells (24 hrs post-plating) it was 0.182 ± 0.018; in the experiment on CD34^+ cells (36 hrs post-plating) it was 0.260 ± 0.022. Besides, the “neuronal proliferation (BrdU labeled nuclei) in embryonic brain” value with developing mouse brain is given as “minor positive effect”.
